Test results taken from ChEMBL document CHEMBL4033762, “Development of Quinazoline/Pyrimidine-2,4(1H,3H)-diones as Agonists of Cannabinoid Receptor Type 2” (ACS Med Chem Lett, 2017).

How the values were obtained:
[1] = molecular target: Cannabinoid receptor 1 (Homo sapiens, UniProt P21554); assay: Agonist activity at CB1 receptor (unknown origin) expressed in CHO cells co-expressing G-alpha16 incubated for 24 hrs by fluo-4 AM dye based whole-cell calcium mobilization assay
[2] = molecular target: T1, Cannabinoid receptor 2 (Homo sapiens, UniProt P34972); assay: Agonist activity at CB2 receptor (unknown origin) expressed in CHO cells co-expressing G-alpha16 incubated for 24 hrs by fluo-4 AM dye based whole-cell calcium mobilization assay; format: functional
[3] = molecular target: T1, Cannabinoid receptor 2; assay: Agonist activity at CB2 receptor (unknown origin) expressed in CHO cells co-expressing G-alpha16 incubated for 24 hrs by fluo-4 AM dye based whole-cell calcium mobilization assay relative to CP55940; format: functional
[4] = Ratio of EC50 for agonist activity at CB1 receptor (unknown origin) expressed in CHO cells to EC50 for agonist activity at CB2 receptor (unknown origin) expressed in CHO cells; parameters: species or system Homo sapiens
[5] = Lipophilicity, log P of the compound incubated at 37 degC for 20 hrs by HPLC based shake flask method; format: physicochemical

T1 sequence (P34972 whole entry): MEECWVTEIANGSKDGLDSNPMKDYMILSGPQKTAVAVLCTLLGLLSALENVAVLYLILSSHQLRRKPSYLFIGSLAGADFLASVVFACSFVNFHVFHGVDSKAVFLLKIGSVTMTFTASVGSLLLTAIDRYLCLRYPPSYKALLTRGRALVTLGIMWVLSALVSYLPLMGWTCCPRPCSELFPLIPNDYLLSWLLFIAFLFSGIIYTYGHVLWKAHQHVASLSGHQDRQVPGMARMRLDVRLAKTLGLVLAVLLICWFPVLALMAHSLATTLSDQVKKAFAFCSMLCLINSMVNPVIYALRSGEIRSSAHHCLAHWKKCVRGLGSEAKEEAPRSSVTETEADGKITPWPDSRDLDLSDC
Cannabinoid receptor 1, sequence (P21554 whole entry): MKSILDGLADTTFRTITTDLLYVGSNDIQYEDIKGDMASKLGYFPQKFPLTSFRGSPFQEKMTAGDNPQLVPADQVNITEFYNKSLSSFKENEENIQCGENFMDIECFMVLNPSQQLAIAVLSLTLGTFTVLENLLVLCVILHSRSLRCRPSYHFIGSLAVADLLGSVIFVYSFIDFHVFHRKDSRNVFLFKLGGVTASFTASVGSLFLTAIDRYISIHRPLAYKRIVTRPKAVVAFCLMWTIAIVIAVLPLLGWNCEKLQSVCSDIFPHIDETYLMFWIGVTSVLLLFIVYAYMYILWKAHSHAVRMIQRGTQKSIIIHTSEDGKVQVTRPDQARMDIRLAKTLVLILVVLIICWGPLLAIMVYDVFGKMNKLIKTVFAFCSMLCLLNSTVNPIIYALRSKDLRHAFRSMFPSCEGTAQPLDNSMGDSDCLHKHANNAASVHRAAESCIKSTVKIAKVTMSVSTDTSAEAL

SMILES: CCCCCn1c(C)c(-c2ccccc2)c(=O)n(CC(=O)NC(C)(C)C)c1=O
- EC50 [1]: > 10 µM
- EC50 [2]: > 10000 nM

SMILES: CCCCCn1c(C)c(I)c(=O)n(CC(=O)NC(C)(C)C)c1=O
- EC50 [1]: > 10 µM
- Emax [3]: 78%
- Ratio EC50 [4]: >56
- EC50 [2]: 178 nM

SMILES: CCCCCn1c(=O)n(CC(=O)NC(C)(C)C)c(=O)c2cccc(C)c21
- EC50 [1]: > 10 µM
- Emax [3]: 99%
- Ratio EC50 [4]: >361
- EC50 [2]: 27.7 nM

SMILES: CCCCCn1c(=O)n(CC(=O)NC2CC2)c(=O)c2ccccc21
- EC50 [1]: > 10 µM
- Emax [3]: 58%
- Ratio EC50 [4]: >13
- EC50 [2]: 743 nM

SMILES: CCCCCCn1c(C)cc(=O)n(CC(=O)NC(C)(C)C)c1=O
- EC50 [1]: > 10 µM
- Emax [3]: 65%
- Ratio EC50 [4]: >13
- EC50 [2]: 767 nM

SMILES: CCCCCn1c(=O)n(CC(=O)NCCCC)c(=O)c2c(Cl)cccc21
- EC50 [1]: > 10 µM
- Emax [3]: 30%
- Ratio EC50 [4]: >68
- EC50 [2]: 147 nM

SMILES: C=CCCn1c(=O)n(CC(=O)NC(C)(C)C)c(=O)c2cccc(C)c21
- EC50 [1]: > 10 µM
- Emax [3]: 90%
- Ratio EC50 [4]: >100
- EC50 [2]: 99.6 nM

SMILES: CCCCn1c(C)cc(=O)n(CC(=O)NC(C)(C)C)c1=O
- EC50 [1]: > 10 µM
- EC50 [2]: > 10000 nM

SMILES: CCCCCn1c(=O)n(CC(=O)NC2CCCCC2)c(=O)c2c(Cl)cccc21
- EC50 [1]: > 10 µM
- EC50 [2]: > 10000 nM

SMILES: CCCCCn1c(=O)n(CC(=O)NCCCC)c(=O)c2c(OC)cccc21
- EC50 [1]: > 10 µM
- EC50 [2]: > 10000 nM

SMILES: CCCCn1c(=O)n(CC(=O)NC(C)(C)C)c(=O)c2ccccc21
- EC50 [1]: > 10 µM
- Emax [3]: 101%
- Ratio EC50 [4]: >89
- EC50 [2]: 112 nM

SMILES: CCCCCn1c(=O)n(CC(=O)NC2CCCCC2)c(=O)c2ccccc21
- EC50 [1]: > 10 µM
- EC50 [2]: > 10000 nM

SMILES: CCCn1c(=O)n(CC(=O)NC(C)(C)C)c(=O)c2cccc(C)c21
- EC50 [1]: > 10 µM
- Emax [3]: 121%
- Ratio EC50 [4]: >25
- EC50 [2]: 407 nM

SMILES: CCCCCn1c(=O)n(CC(=O)NCC(C)C)c(=O)c2ccccc21
- EC50 [1]: > 10 µM
- Emax [3]: 81%
- Ratio EC50 [4]: >27
- EC50 [2]: 370 nM

SMILES: CCCCn1c(=O)n(CC(=O)NC(C)(C)C)c(=O)c2c(C)cccc21
- EC50 [1]: > 10 µM
- Emax [3]: 98%
- Ratio EC50 [4]: >425
- EC50 [2]: 23.5 nM

SMILES: CCCCCn1c(C)cc(=O)n(CC(=O)NC2CCCCC2)c1=O
- EC50 [1]: > 10 µM
- EC50 [2]: > 10000 nM

SMILES: CCCCCn1c(C)c(Br)c(=O)n(CC(=O)NC(C)(C)C)c1=O
- EC50 [1]: > 10 µM
- Emax [3]: 74%
- logP at 20 h [5]: 2.24
- Ratio EC50 [4]: >205
- EC50 [2]: 48.7 nM

SMILES: CCCCCn1c(=O)n(CC(=O)NCCCC)c(=O)c2ccccc21
- EC50 [1]: > 10 µM
- Emax [3]: 78%
- Ratio EC50 [4]: >127
- EC50 [2]: 78.6 nM

SMILES: CCCCCn1c(=O)n(CC(=O)NC2CCCCC2)c(=O)c2c(C)cccc21
- EC50 [1]: > 10 µM
- Emax [3]: 56%
- Ratio EC50 [4]: >25
- EC50 [2]: 395 nM

SMILES: Cc1cccc2c1c(=O)n(CC(=O)NC(C)(C)C)c(=O)n2CC1CC1
- EC50 [1]: > 10 µM
- Emax [3]: 106%
- Ratio EC50 [4]: >146
- EC50 [2]: 68.3 nM

SMILES: CCCCCn1c(C)c(Cl)c(=O)n(CC(=O)NC(C)(C)C)c1=O
- EC50 [1]: > 10 µM
- Emax [3]: 65%
- Ratio EC50 [4]: >44
- EC50 [2]: 227 nM

SMILES: C=CCCn1c(=O)n(CC(=O)NC(C)(C)C)c(=O)c2c(C)cccc21
- EC50 [1]: > 10 µM
- Emax [3]: 103%
- Ratio EC50 [4]: >214
- EC50 [2]: 46.8 nM

SMILES: CCCCCn1c(C)c(C2CC2)c(=O)n(CC(=O)NC(C)(C)C)c1=O
- EC50 [1]: > 10 µM
- Emax [3]: 71%
- Ratio EC50 [4]: >37
- EC50 [2]: 270 nM

SMILES: CCCn1c(=O)n(CC(=O)NC(C)(C)C)c(=O)c2c(C)cccc21
- EC50 [1]: > 10 µM
- Emax [3]: 113%
- Ratio EC50 [4]: >88
- EC50 [2]: 113 nM

SMILES: CCCCCn1c(C)cc(=O)n(CC(=O)NCCCC)c1=O
- EC50 [1]: > 10 µM
- EC50 [2]: > 10000 nM

SMILES: CCCn1c(=O)n(CC(=O)NC(C)(C)C)c(=O)c2ccccc21
- EC50 [1]: > 10 µM
- Emax [3]: 75%
- Ratio EC50 [4]: >7
- EC50 [2]: 1420 nM

SMILES: CCCCCn1c(C)c(-c2cccc(C)c2)c(=O)n(CC(=O)NC(C)(C)C)c1=O
- EC50 [1]: > 10 µM
- EC50 [2]: > 10000 nM

SMILES: O=C(NCC1CCOCC1)c1cnc(Nc2ccc(Cl)cc2Cl)nc1C(F)(F)F [GW842166X]
- EC50 [1]: > 10 µM
- Emax [3]: 97%
- logP at 20 h [5]: 4.27
- Ratio EC50 [4]: >29
- EC50 [2]: 343 nM

SMILES: CCCCCn1c(=O)n(CC(=O)NC(C)(C)C)c(=O)c2ccccc21
- EC50 [1]: > 10 µM
- Emax [3]: 80%
- Ratio EC50 [4]: >116
- EC50 [2]: 86.5 nM

SMILES: CCCCCn1c(=O)n(CC(=O)NC(C)(C)C)c(=O)c2c(C)cccc21
- EC50 [1]: > 10 µM
- Emax [3]: 77%
- logP at 20 h [5]: 2.56
- Ratio EC50 [4]: >715
- EC50 [2]: 14 nM

SMILES: CCCCn1c(=O)n(CC(=O)NC(C)(C)C)c(=O)c2cccc(C)c21
- EC50 [1]: > 10 µM
- Emax [3]: 102%
- Ratio EC50 [4]: >262
- EC50 [2]: 38.2 nM

SMILES: CCCCCn1c(C)cc(=O)n(CC(=O)NC(C)(C)C)c1=O
- EC50 [1]: > 10 µM
- Emax [3]: 72%
- Ratio EC50 [4]: >13
- EC50 [2]: 722 nM

SMILES: CCCCCn1c(=O)n(CC(=O)NCCCC)c(=O)c2c(C)cccc21
- EC50 [1]: > 10 µM
- Emax [3]: 83%
- Ratio EC50 [4]: >21
- EC50 [2]: 468 nM

SMILES: CCCCN1C(=O)/C(=C/NC2CCCCC2)C(=O)c2cccc(C)c21
- logP at 20 h [5]: 4.35

SMILES: Cc1cccc2c(=O)n(CC(=O)NC(C)(C)C)c(=O)n(CC3CC3)c12
- EC50 [1]: > 10 µM
- Emax [3]: 110%
- Ratio EC50 [4]: >32
- EC50 [2]: 309 nM

SMILES: CCCCCn1c(=O)n(CC(=O)NC(C)C)c(=O)c2ccccc21
- EC50 [1]: > 10 µM
- Emax [3]: 65%
- Ratio EC50 [4]: >47
- EC50 [2]: 214 nM

SMILES: CCCCCn1c(=O)n(CC(=O)NC2CCCCC2)c(=O)c2c(OC)cccc21
- EC50 [1]: > 10 µM
- EC50 [2]: > 10000 nM

SMILES: CCCCCn1c(=O)n(CC(=O)NC(C)(C)C)c(=O)c2cccc(Cl)c21
- EC50 [1]: > 10 µM
- Emax [3]: 118%
- Ratio EC50 [4]: >190
- EC50 [2]: 52.7 nM

SMILES: CCCCCn1c(=O)n(CC(=O)NC(C)(C)C)c(=O)c2c(OC)cccc21
- EC50 [1]: > 10 µM
- Emax [3]: 88%
- Ratio EC50 [4]: >8
- EC50 [2]: 1250 nM

SMILES: CCCCCn1c(=O)n(CC(=O)NC(C)(C)C)c(=O)c2cccc(OC)c21
- EC50 [1]: > 10 µM
- EC50 [2]: > 10000 nM
